Results published in patent US10167288B2, “Substituted pyrazolylpyrazole derivative and use of same as herbicide” (KYOYU AGRI CO., LTD., priority 2015, dated 2019).

Key:
Format in all cases: in vivo
[1] = system: Echinochloa crus-galli; test: Paddy herbicidal activity test; conditions: dropped into paddy water at 3.5 leaf stage of Echinochloa crus-galli, 30 days, 30° C., vs untreated group
Procedure: (§1) 1. Paddy Herbicidal Activity Test
(§2) Rice paddy soil was filled into a 1/10000 are pot followed by the addition of suitable amounts of water and chemical fertilizer, kneading, seeding with Echinochloa crus-galli, Monochoria vaginalis and Scirpus juncoides and maintaining in an irrigated state at a water depth of 3 cm.
(§3) Wettable powders of Target Compound (I) shown in Table 1 prepared in compliance with the preparation examples were diluted with a suitable amount of water, rice plants in the 2.0 leaf stage were transplanted during 3.5 leaf stage of Echinochloa crus-galli, and treated by dropping in chemical in the prescribed amount per 10 are using a pipette.
(§4) After treating for 30 days in a glass greenhouse at an average atmospheric temperature of 30° C., the herbicidal efficacy thereof was investigated.
(§5) Evaluation of herbicidal efficacy was carried out by comparing growth inhibition rate (%) with an untreated group, while evaluation of phytotoxicity was carried out by comparing growth inhibition rate (%) with the state of a complete eradication group, and were evaluated at 11 levels indicated below.

[2] = system: Monochoria vaginalis; test: Paddy herbicidal activity test; conditions: dropped into paddy water at 3.5 leaf stage of Echinochloa crus-galli, 30 days, 30° C., vs untreated group
Procedure: as §1, §2, §3, §4, §5

[3] = system: Scirpus juncoides; test: Paddy herbicidal activity test; conditions: dropped into paddy water at 3.5 leaf stage of Echinochloa crus-galli, 30 days, 30° C., vs untreated group
Procedure: as §1, §2, §3, §4, §5

[4] = system: Oryza sativa; test: Paddy herbicidal activity test, phytotoxicity to transplanted rice; conditions: rice transplanted in the 2.0 leaf stage, 30 days, 30° C., vs complete eradication group
Procedure: as §1, §2, §3, §4, §5

[5] = system: Amaranthus retroflexus; test: Farming soil treatment test; conditions: soil surface spray prior to weed growth, 30 days, 30° C.
Procedure: (§6) 2. Farming Soil Treatment Test Field soil was filled into a 1/6000 are pot followed by seeding with Digitaria ciliaris Chenopodium album and Amaranthus retroflexus and covering with soil. Wettable powders of compounds of formula (I) shown in Table 1 prepared in compliance with the preparation examples were diluted with water to the prescribed amount of chemical and uniformly sprayed onto each soil surface layer using 100 liters of sprayed water per 10 are prior to weed growth following seeding. After treating for 30 days in a glass greenhouse at an average atmospheric temperature of 30° C., the herbicidal efficacy thereof was investigated. Evaluation of herbicidal efficacy was carried out in the same manner as the above-mentioned Test Example 1.

[6] = system: Chenopodium album; test: Farming soil treatment test; conditions: soil surface spray prior to weed growth, 30 days, 30° C.
Procedure: as §6

[7] = system: Digitaria ciliaris; test: Farming soil treatment test; conditions: soil surface spray prior to weed growth, 30 days, 30° C.
Procedure: as §6

[8] = system: Galinsoga parviflora; test: Weed foliar treatment test (Test Example 4); conditions: 10 g a.i./10 a; foliar spray at 4.0 to 5.0 leaf stage of Digitaria ciliaris (plant height 10 cm to 15 cm); 20 days, 25° C.
Procedure: (§7) 4. Weed Foliar Treatment Test
(§8) Field soil was filled into a 1/4500 are pot followed by seeding with Digitaria ciliaris and Galinsoga parviflora, covering with soil and cultivating in a glass greenhouse at an average atmospheric temperature of 25° C.
(§9) Wettable powders of Target Compound (I) shown in Table 1 prepared in compliance with the preparation examples were diluted with water to the prescribed amount of chemical and uniformly sprayed onto the weeds using 100 liters of sprayed water per 10 are when Digitaria ciliaris had grown to the 4.0 to 5.0 leaf stage (plant height: 10 cm to 15 cm).
(§10) After treating for 20 days in a glass greenhouse at an average atmospheric temperature of 25° C., the herbicidal efficacy thereof was investigated.
(§11) Evaluation of herbicidal efficacy was carried out in the same manner as the above-mentioned Test Example 1.

[9] = system: Digitaria ciliaris; test: Weed foliar treatment test (Test Example 4); conditions: 10 g a.i./10 a; foliar spray at 4.0 to 5.0 leaf stage of Digitaria ciliaris (plant height 10 cm to 15 cm); 20 days, 25° C.
Procedure: as §7, §8, §9, §10, §11

[10] = system: Amaranthus retroflexus; test: Weed foliar treatment test (Test Example 3); conditions: foliar spray at 1.0 to 2.0 leaf stage of Digitaria ciliaris, 3 weeks, 25° C.
Procedure: (§12) 3. Weed Foliar Treatment Test
(§13) Soil was filled into a 1/6000 are pot followed by seeding with Digitaria ciliaris, Chenopodium album and Amaranthus retroflexus, covering with soil, and cultivating in a glass greenhouse at an average atmospheric temperature of 25° C.
(§14) Wettable powders of Target Compound (I) shown in Table 1 prepared in compliance with the preparation examples were diluted with water to the prescribed amount of chemical and uniformly sprayed onto the weeds using 150 liters of sprayed water per 10 are when Digitaria ciliaris had grown to the 1.0 to 2.0 leaf stage.
(§15) After treating for 3 weeks in a glass greenhouse at an average atmospheric temperature of 25° C., the herbicidal efficacy thereof was investigated.
as §11

[11] = system: Chenopodium album; test: Weed foliar treatment test (Test Example 3); conditions: foliar spray at 1.0 to 2.0 leaf stage of Digitaria ciliaris, 3 weeks, 25° C.
Procedure: as §12, §13, §14, §15, §11

[12] = system: Digitaria ciliaris; test: Weed foliar treatment test (Test Example 3); conditions: foliar spray at 1.0 to 2.0 leaf stage of Digitaria ciliaris, 3 weeks, 25° C.
Procedure: as §12, §13, §14, §15, §11

Structure (SMILES)	herbicidal efficacy, Echinochloa crus-galli ([1]; 1 g a.i./10 a)	herbicidal efficacy, Echinochloa crus-galli ([1]; 5 g a.i./10 a)	herbicidal efficacy, Monochoria vaginalis ([2]; 1 g a.i./10 a)	herbicidal efficacy, Monochoria vaginalis ([2]; 5 g a.i./10 a)	herbicidal efficacy, Scirpus juncoides ([3]; 1 g a.i./10 a)	herbicidal efficacy, Scirpus juncoides ([3]; 5 g a.i./10 a)	phytotoxicity, Oryza sativa ([4]; 1 g a.i./10 a)	phytotoxicity, Oryza sativa ([4]; 5 g a.i./10 a)	herbicidal efficacy, Amaranthus retroflexus ([5]; 5 g a.i./10 a)	herbicidal efficacy, Amaranthus retroflexus ([5]; 10 g a.i./10 a)	herbicidal efficacy, Chenopodium album ([6]; 5 g a.i./10 a)	herbicidal efficacy, Chenopodium album ([6]; 10 g a.i./10 a)	herbicidal efficacy, Digitaria ciliaris ([7]; 5 g a.i./10 a)	herbicidal efficacy, Digitaria ciliaris ([7]; 10 g a.i./10 a)	herbicidal efficacy, Galinsoga parviflora [8]	herbicidal efficacy, Digitaria ciliaris [9]	herbicidal efficacy, Amaranthus retroflexus ([10]; 5 g a.i./10 a)	herbicidal efficacy, Amaranthus retroflexus ([10]; 10 g a.i./10 a)	herbicidal efficacy, Chenopodium album ([11]; 5 g a.i./10 a)	herbicidal efficacy, Chenopodium album ([11]; 10 g a.i./10 a)	also measured
CCOC(=O)Nc1c([N+](=O)[O-])cnn1-c1nn2c(c1Cl)CCCC2 [Control agent 2.28, reference compound]	1 (10% to less than 20%)	2 (20% to less than 30%)	3 (30% to less than 40%)	4 (40% to less than 50%)	1 (10% to less than 20%)	2 (20% to less than 30%)	0 (0% to less than 10% (growth inhibition rate))	1 (10% to less than 20%)	3 (30% to less than 40%)	5 (50% to less than 60%)	4 (40% to less than 50%)	5 (50% to less than 60%)	1 (10% to less than 20%)	2 (20% to less than 30%)	2 (20% to less than 30%)	1 (10% to less than 20%)	3 (30% to less than 40%)	6 (60% to less than 70%)	6 (60% to less than 70%)	7 (70% to less than 80%)	herbicidal efficacy, Digitaria ciliaris ([12]; 5 g a.i./10 a): 2 (20% to less than 30%); herbicidal efficacy, Digitaria ciliaris ([12]; 10 g a.i./10 a): 4 (40% to less than 50%)
COC(=O)Nc1c(C#N)cnn1-c1nn2c(c1Cl)CCCC2 [Compound 7]	10 (100%)	10 (100%)	10 (100%)	10 (100%)	9 (90% to less than 100%)	10 (100%)	1 (10% to less than 20%)	1 (10% to less than 20%)	10 (100%)	10 (100%)	9 (90% to less than 100%)	10 (100%)	10 (100%)	10 (100%)	10 (100%)	10 (100%)	10 (100%)	10 (100%)	10 (100%)	10 (100%)	herbicidal efficacy, Digitaria ciliaris ([12]; 5 g a.i./10 a): 10 (100%); herbicidal efficacy, Digitaria ciliaris ([12]; 10 g a.i./10 a): 10 (100%)
CCOC(=O)Nc1c(C#N)cnn1-c1nn2c(c1Cl)CCCC2 [Compound 1, Ethyl N-(1-(3-chloro-4,5,6,7-tetrahydropyrazolo[1,5-a]pyridin-2-yl)-4-cyanopyrazol-5-yl) Carbamate]	10 (100%)	10 (100%)	10 (100%)	10 (100%)	10 (100%)	10 (100%)	1 (10% to less than 20%)	1 (10% to less than 20%)	10 (100%)	10 (100%)	10 (100%)	10 (100%)	10 (100%)	10 (100%)	10 (100%)	10 (100%)	10 (100%)	10 (100%)	10 (100%)	10 (100%)	herbicidal efficacy, Digitaria ciliaris ([12]; 5 g a.i./10 a): 10 (100%); herbicidal efficacy, Digitaria ciliaris ([12]; 10 g a.i./10 a): 10 (100%)
CC(C)COC(=O)Nc1c(C#N)cnn1-c1nn2c(c1Cl)CCCC2 [Compound 10]															10 (100%)	10 (100%)					
CCSC(=O)Nc1c(C#N)cnn1-c1nn2c(c1Cl)CCCC2 [Compound 11]															10 (100%)	10 (100%)					
COC(=O)Nc1c(C#N)cnn1-c1nn2c(c1Cl)CCC2 [Compound 3]	10 (100%)	10 (100%)	10 (100%)	10 (100%)	9 (90% to less than 100%)	10 (100%)	1 (10% to less than 20%)	1 (10% to less than 20%)	10 (100%)	10 (100%)	9 (90% to less than 100%)	10 (100%)	10 (100%)	10 (100%)	10 (100%)	10 (100%)	10 (100%)	10 (100%)	10 (100%)	10 (100%)	herbicidal efficacy, Digitaria ciliaris ([12]; 5 g a.i./10 a): 10 (100%); herbicidal efficacy, Digitaria ciliaris ([12]; 10 g a.i./10 a): 10 (100%)
CCCOC(=O)Nc1c(C#N)cnn1-c1nn2c(c1Cl)CCCC2 [Compound 4]															10 (100%)	10 (100%)					
